Assay results: patent US9675563B2, “Method for adjunctive treatment of cancer metastasis by using lycogen” (ASIA-PACIFIC BIOTECH DEVELOPING, INC., priority 2015, dated 2017)

Experiments:
Assay type in all cases: cell-based, human
[1] = tested on: HUVEC cells; test: Cell migration analysis under the angiogenesis assay conditions; conditions: 5-FU alone
Experimental: (§1) The in vitro angiogenesis assay was a model test used for studying anti-angiogenic nutrient or drugs, and the assay was highly convenient and fast. […] H2O2 was used to induce tubeformation in matrigel to evaluate the effect of Lycogen on the index of angiogenesis. HUVEC cells were dissolved in 10% serum-containing culture media, and then HUVEC cells were seeded into matrigel pre-coated 24-well plates in a density of […] per well. Except for the control group HUVEC cells in all other groups were treated with solvent vehicle, 5-FU, 5-FU plus 10 μM Lycogen, 5-FU plus 30 μM Lycogen, and 5-FU plus 50 μM of Lycogen, respectively. Each assay under the same experimental condition was performed in duplicate and this experiment was repeated twice. Phase contrast photomicrographs were taken by a phase contrast microscope with 100× magnification at 6 hours after the treatment.
In another example, the effect of Lycogen on cell migration was analyzed under the same conditions of the aforementioned angiogenesis analysis.

[2] = tested on: EA.hy926 cell line; test: Cancer cell invasion assay (Matrigel, fluorescent microscope); conditions: 25 μg/mL 5-FU, 24 hours, compared to 0 μg/ml group
Experimental: In one embodiment, the EA.hy926 cell line was used to analyze the ability of Lycogen on inhibiting cancer cell invasion. EA.hy926 cell line was treated with various concentration of Lycogen (0, 2, 5, and 10 μM) or 25 μg/mL 5-FU. Twenty-four hours after treatment, the Matrigel was used to analyze the cell invasion, and fluorescent microscope was used to observe the cancer cell invasion.
Cells were cultured on the plate, which was covered by a semipermeable membrane, to mimic the condition of cell invasion in vivo. The basal membrane was interrupted in invasive tumor cell to invade adjacent tissue. The cell culture plate was scratched by a sterile tip or cotton thread to create an acellular space. The cell lines were treated with different treatments, and then the cell number inside the membrane was counted.

[3] = tested on: EA.hy926 cell line; test: EA.hy926 cell migration analysis (migration areas); conditions: 25 μg/mL 5-FU, 24 hours
Experimental: In another example, the effect of Lycogen on cell migration in human umbilical vein endothelial cell line (EA.hy926 cell line) was analyzed. The cell line was treated with different concentrations of Lycogen (0, 2, 5, and 10 μM) or 25 μg/mL 5-FU, and the EA.hy926 cell migration was analyzed 24 hours after treatments to calculate the migration areas.

[4] = tested on: HUVEC cells; test: In vitro angiogenesis assay (H2O2-induced tubeformation in matrigel); conditions: 5-FU alone, 6 hours after treatment
Experimental: as §1

O=c1[nH]cc(F)c(=O)[nH]1 [5-FU]
cell migration [1]: did inhibit | invaded cell number [2]: significantly decreased | cancer cell migration (migration areas) [3]: had the ability of inhibiting cancer cell migration | cell tubeformation [4]: did inhibit
